Patent US20170119776A1, “CHIRAL 2,5-DISUBSTITUTED CYCLOPENTANECARBOXYLIC ACID DERIVATIVES AND USE THEREOF” (BAYER PHARMA AKTIENGESELLSCHAFT, priority 2014, published 2017)

Assays:
[1] = Hepatocyte assay for determining the metabolic stability; type: in vitro ADME; details: incubation with rat hepatocytes; read-out: Fmax (maximum possible bioavailability, well-stirred)
Description: (§1) The metabolic stability of test compounds towards hepatocytes is determined by incubating the compounds at low concentrations (preferably below or around 1 μM) and at low cell counts (preferably at 1*10^6 cells/ml) in order to ensure the greatest possible linear kinetic conditions in the experiment. Seven samples from the incubation solution are removed within a stipulated time frame for the LC-MS analysis in order to determine the half life (i.e. the degradation) of the particular compound. This half life is used to calculate various “Clearance” parameters (CL) and “Fmax” values (see below).
(§2) The CL and Fmax values are a measure of the phase 1 and phase 2 metabolism of the compounds in the hepatocytes. In order to keep the influence of the organic solvent on the enzymes in the incubation mixtures as low as possible, its concentration is generally limited to 1% (acetonitrile) or 0.1% (DMSO).
(§3) For all species and races, a hepatocyte cell count in the liver of 1.1*10^8 cells/g of liver is estimated.
(§4) The calculated parameters and their meaning are: • Fmax well-stirred [%] Maximum possible bioavailability following oral application
(§5) Calculation: (1−CLblood well-stirred/QH)*100 • CLblood well-stirred [L/(h*kg)] Calculated blood clearance (well stirred model) […]

rat hepatocytes = assay: as above; type: in vitro ADME; details: incubation with rat hepatocytes
Description: as §1, §2, §3, §4, §5

[2] = Pharmacokinetic investigations in vivo, rat; details: Rat (Wistar)
Description: (§6) The substance to be examined is administered to rats, mice or dogs intravenously as a solution (for example in corresponding plasma with a small addition of DMSO or in a PEG/ethanol/water mixture), and peroral administration is effected as a solution (for example in Solutol/ethanol/water or PEG/ethanol/water mixtures) or as a suspension (e.g. in a water/tylose mixture), in each case via a gavage. After administration of the substance, blood is taken from the animals at fixed times. The blood is heparinized, then plasma is obtained therefrom by centrifugation. The test substance is quantified analytically in the plasma via LC-MS/MS. From the plasma concentration/time plots determined in this way, using an internal standard and with the aid of a validated computer program, the pharmacokinetic parameters, such as AUC (area under the concentration/time curve), Cmax (maximum plasma concentration), t1/2 (half life), VSS (distribution volume) and CL (clearance), and the absolute and relative bioavailability F and Frel (i.v./p.o. comparison or comparison of suspension to solution after p.o. administration), are calculated.

[3] = Pharmacokinetic investigations in vivo, mouse; details: Mouse (C57BL/6)
Description: as §6

[4] = Pharmacokinetic investigations in vivo, dog; details: Dog (Beagle)
Description: as §6

[5] = plasma, iv, read-out: CLPlasma CLblood (converted)
[6] = plasma, po, p.o., read-out: t1/2 p.o. (converted)

## O=C(O)[C@H]1[C@H](Cn2nnc3ccccc3c2=O)CC[C@@H]1C(=O)c1ccc(OCc2ccccc2)cc1 [Example 2, (+)-(1S,2S,5R)-2-[4-(Benzyloxy)benzoyl]-5-[(4-oxo-1,2,3-benzotriazin-3(4H)-yl)methyl]cyclopentanecarboxylic acid]
[1]
  bioavailability: 84.4%
Rat hepatocytes
  CLblood (calculated blood clearance, well-stirred): 10.8 mL/min/kg
[2]; bioavailability from solution
  F: 100%
[2]; i.v.
  AUCnorm i.v.: 93.6 kg·h/L
[2]; suspension vs solution p.o.
  Frel: 97%
[2]; [5]
  clearance: 0.183 mL/min/kg
[2]; [6]
  half-life: 8.4 h
[3]; bioavailability from solution
  F: 84%
[3]; i.v.
  AUCnorm i.v.: 44.6 kg·h/L
[3]; [5]
  clearance: 0.367 mL/min/kg
[3]; [6]
  half-life: 5 h
[4]; bioavailability from solution
  F: 100%
[4]; i.v.
  AUCnorm i.v.: 10.6 kg·h/L
[4]; [5]
  clearance: 1.57 mL/min/kg
[4]; [6]
  half-life: 14.4 h
